From ChEMBL document CHEMBL2417368, “Structure-based discovery of novel amide-containing nicotinamide phosphoribosyltransferase (nampt) inhibitors” (J Med Chem, 2013)
Calls of active or inactive are those of the source. The rule behind the calls is not given here.

What was measured:
[1] = (§1) Metabolic stability in human liver microsomes assessed as compound remaining at 1 uM after 30 mins LC-MS analysis; assay type: ADME, Microsome; settings: liver microsomes, read-out: Stability
Liver [2] = assay: (§2) Metabolic stability in mouse liver microsomes assessed as compound remaining at 1 uM after 30 mins LC-MS analysis; assay type: ADME, Microsome; settings: microsomes, 0.5 h, 1 µM, BLD = below limit of detection
[3] = target: Nicotinamide phosphoribosyltransferase (Homo sapiens, UniProt P43490)
A2780 = assay: cells; settings: Homo sapiens, A2780, 72 h
[4] = as §2; assay type: ADME, Microsome; settings: liver microsomes, read-out: Stability
[5] = Fraction unbound in mouse plasma at 5 uM after 4 hrs by LC-MS/MS analysis; assay type: ADME, cell-free
[6] = Fraction unbound in human plasma at 5 uM after 4 hrs by LC-MS/MS analysis; assay type: ADME, cell-free
[7] = Intrinsic clearance in human hepatocytes at 1 uM after 10 mins by LC-MS/MS analysis; assay type: ADME, cell-based, Hepatocyte; settings: read-out: CLH
in vitro = settings: dog, MDCK
[8] = Intrinsic clearance in CD-1 mouse hepatocytes at 1 uM after 10 mins by LC-MS/MS analysis; assay type: ADME, cell-based, Hepatocyte; settings: read-out: CLH
Liver [9] = assay: as §1; assay type: ADME, Microsome; settings: microsomes, 0.5 h, 1 µM, BLD = below limit of detection
[10] = Oral bioavailability in NCR nude mouse at 10 mg/kg; assay type: ADME, organism-based; settings: in vivo
[11] = Tmax in NCR nude mouse at 10 mg/kg, po; assay type: ADME, organism-based; parameters: dose 10 mg/kg, route oral; settings: in vivo
U-251 [12] = assay: Antitumor activity against human U251 cells xenografted in athymic nu/nu mouse assessed as reduction in tumor size at 25 mg/kg, po QD for 7 days measured on day 13; assay type: functional, organism-based; parameters: dose 25 mg/kg
[13] = Cmax in NCR nude mouse at 10 mg/kg, po; assay type: ADME, organism-based; parameters: dose 10 mg/kg, route oral; settings: in vivo
PC-3 = assay: Antiproliferative activity against human PC3 cells assessed as cell viability after 72 hrs; assay type: functional, cell-based; settings: PC-3, 72 h
HCT-116 = assay: Antiproliferative activity against human HCT116 cells assessed as cell viability after 72 hrs; assay type: functional, cell-based; settings: HCT-116, 72 h
MIA PaCa-2 = assay: Antiproliferative activity against human MIAPaCa2 cells assessed as cell viability after 72 hrs; assay type: functional, cell-based; settings: MIA PaCa-2, 72 h
[14] = AUC (infinity) in NCR nude mouse at 10 mg/kg, po; assay type: ADME, organism-based; parameters: time infinity, dose 10 mg/kg, route oral; settings: plasma
U-251 [15] = assay: Antiproliferative activity against human U251 cells assessed as cell viability after 72 hrs by SRB assay; assay type: functional, cell-based; settings: U-251, 72 h
Mus musculus = assay: Toxicity in human U251 cells xenografted in athymic nu/nu mouse assessed as change in body weight at 25 mg/kg, po QD for 7 days; assay type: organism-based, U-251; parameters: dose 25 mg/kg, route oral; settings: in vivo, 168 h
[16] = Volume of distribution at steady state in NCR nude mouse at 5 mg/kg, iv; assay type: ADME, organism-based; parameters: dose 5 mg/kg, route intravenous; settings: in vivo, read-out: Vdss
HT-1080 = assay: Antiproliferative activity against human HT1080 cells assessed as cell viability after 72 hrs; assay type: functional, cell-based; settings: HT-1080, 72 h
[17] = Clearance in NCR nude mouse plasma at 5 mg/kg, iv; assay type: ADME, organism-based; parameters: dose 5 mg/kg, route intravenous

Sequence of Nicotinamide phosphoribosyltransferase (P43490 whole entry): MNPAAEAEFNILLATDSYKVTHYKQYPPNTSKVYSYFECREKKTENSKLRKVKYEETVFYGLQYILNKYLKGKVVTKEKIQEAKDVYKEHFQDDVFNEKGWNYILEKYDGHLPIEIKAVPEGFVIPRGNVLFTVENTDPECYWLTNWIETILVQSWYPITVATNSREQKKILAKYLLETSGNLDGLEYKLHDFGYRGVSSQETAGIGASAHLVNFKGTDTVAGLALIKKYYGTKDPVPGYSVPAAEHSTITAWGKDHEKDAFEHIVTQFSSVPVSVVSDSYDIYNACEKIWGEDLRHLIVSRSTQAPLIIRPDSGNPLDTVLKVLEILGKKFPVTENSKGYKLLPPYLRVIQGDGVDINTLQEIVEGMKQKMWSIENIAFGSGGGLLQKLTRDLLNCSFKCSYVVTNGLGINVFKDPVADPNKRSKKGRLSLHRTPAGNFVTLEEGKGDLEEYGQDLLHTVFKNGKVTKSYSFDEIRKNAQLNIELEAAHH

Structure (SMILES)	remaining at 0.5 h, 1 µM [1] [%]	Stability (Liver [2])	IC50 [3] [nM]	IC50 (A2780) [nM]	remaining at 0.5 h, 1 µM [4] [%]	fraction unbound at 4 h, 5 µM [5]	fraction unbound at 4 h, 5 µM [6]	CLint scaled at 1 µM [7] [mL/min/kg]	Papp A→B at 10 µM (in vitro) [×10⁻⁶ cm/s]	CLint scaled at 1 µM [8] [mL/min/kg]	further results
O=C(NCc1ccc(S(=O)(=O)N2CCCCC2)cc1)c1ccc2ncsc2c1	24	BLD	37	> 10000	–	–	–	–	–	–	–
O=C(NCc1ccc(S(=O)(=O)N2CCCCC2)cc1)c1cc2cnccc2s1	15	BLD	150	1600	–	–	–	–	–	–	–
O=C(NCc1ccc(S(=O)(=O)c2cccc(C(F)(F)F)c2)cc1)c1cc2cnccc2[nH]1	81	–	8	3	49	0.007	0.006	10	5	60	–
O=C(NCc1ccc(S(=O)(=O)N2CCCCC2)cc1)c1cc2ccncc2[nH]1	50	BLD	1000	1700	–	–	–	–	–	–	–
O=C(NCc1ccc(S(=O)(=O)c2ccc(N3CCOCC3)nc2)cc1)c1cnc2nccn2c1	86	–	1	2	86	0.12	0.028	6	0.3	69	–
O=C(NCc1ccc(S(=O)(=O)N2CCCCC2)cc1)c1cc2cccnc2s1	–	BLD	8	> 10000	–	–	–	–	–	–	Stability (Liver [9]): BLD
O=C(NCc1ccc(S(=O)(=O)c2cc(F)cc(F)c2)cc1)c1ccc2nccn2c1	53	–	–	2	39	0.067	0.06	10	12	42	bioavailability [10]: 41.1%; Tmax [11]: 15 min; Activity (U-251 [12]): Active; Cmax [13]: 1210 nM; IC50 (PC-3): 2.7 nM; IC50 (HCT-116): 2 nM; IC50 (MIA PaCa-2): 7.4 nM; AUC(0-inf) [14]: 3.06 µM·h; IC50 (U-251 [15]): 1.8 nM; Activity (Mus musculus): Non-toxic; Vd [16]: 6.7 L/kg; IC50 (HT-1080): 2.1 nM; clearance [17]: 52.4 mL/min/kg
O=C(NCc1ccc(S(=O)(=O)c2ccc(N3CCOCC3)nc2)cc1)c1cc2ccncc2o1	51	–	3	1	42	0.017	0.005	14	15	48	–
O=C(NCc1ccc(S(=O)(=O)c2cccc(C(F)(F)F)c2)cc1)c1cc2ccncc2o1	48	–	5	3	64	0.011	0.01	10	13	25	–
Cn1c(C(=O)NCc2ccc(S(=O)(=O)c3ccccc3)cc2)cc2ccncc21	71	BLD	410	> 10000	–	–	–	–	–	–	–
O=C(NCc1ccc(S(=O)(=O)c2ccc(N3CCOCC3)nc2)cc1)c1ccc2nccn2c1	65	–	6	1	75	0.025	0.012	10	3	43	–
